US20200369996A1, “Bioreactor Screening Platform for Modelling Human Systems Biology and for Screening for Inotropic Effects of Agents on the Heart” (NOVOHEART LIMITED, priority 2017, published 2020)
“Also recorded” adds a separate entry of the source. Read-outs that look alike come from different tables or passages of the source.

Tests used:
[1] = tested on: non-failing human myocardium; details: ref [18]; cited from earlier work
[2] = tested on: human ventricular cardiac organoid chamber (hvCOC); experiment: hvCOC second tier screening: contractile (pump) function; assay type: cell-based
From the text: The initial steps of hvCOC fabrication are identical to that described above for hvCTS generation, from the dissociation of cell clusters to the preparation of the cells/collagen/Matrigel mix with 1 million cells/ml of human dermal fibroblasts.
To create the chamber, we followed a procedure similar to a published procedure^29, incorporated herein by reference. Briefly, the top of a 3×3×6 cm polystyrene bioreactor was modified to permit 9-gauge hypodermic tubing (Small Parts) to pass through the center and 4 mm diameter graphite electrodes (GraphiteStore) to flank the chamber on the edges of the bioreactor. A 6-Fr silicone balloon Foley catheter (Cook Medical), with the tip cut off and sealed with silicone caulking, was threaded through the 9-Gauge tubing into the center of the bioreactor. A small ring cut from hydrophilic porous polyethylene (Fisher Scientific) was placed just above the balloon on the hypodermic tubing.
The balloon was filled with distilled water to the desired chamber size and positioned concentrically within a 2% agarose mold created in phosphate-buffered saline (PBS) and made by inserting a 13 mm diameter test tube (VWR) into the center of the agarose. The agarose mold forms the outer mold boundary while the catheter balloon forms the inner boundary. […]

[3] = tested on: human ventricular cardiac tissue strips (hvCTS); experiment: hvCTS drug screening: twitch force under electrical pacing; assay type: cell-based; details: Homo sapiens
Protocol: One of ordinary skill in the art will recognize that the gels can be formed in any of a variety of sizes and shapes, and the molds used to form such gels can also be formed in any of a variety of sizes and shapes, depending on the intended use of the molded gel. The molded mixtures were then bathed with culture medium (DMEM supplemented with 10% newborn calf serum), and maintained in culture with daily half-medium exchanges. Inserts in the casting molds were removed at 48 hours, yielding a self-assembled hvCTS held between 0.5-mm-diameter circular PDMS posts at each end. It is apparent that the posts can be formed from any flexible material amenable to at least one form of sterilization are suitable. As noted above, the whole mold can be scaled up or down depending on the application, and the posts can also be scaled up or down. In general, the height of the posts would be similar to the height of a well (e.g., about 6 mm in an exemplary embodiment). Any of a wide variety of cross-sectional shapes is contemplated as being suitable for use in the system, apparatus and methods according to the disclosure. At 7 days after hvCTS creation, the hvCTS were used for drug screening.
Initially, pharmacological compounds were prepared for screening. Compounds for unblinded “open label” screening were purchased from Sigma and stock solutions at the highest possible concentrations were prepared according to the product information. Working concentrations over a 5-logarithmic range were prepared for each drug.
Working concentrations over a 5-logarithmic range were prepared for each drug according to the dose-range recommendation provided by the supplier.
New born calf serum containing medium was replaced with DMEM high glucose with HEPES without phenol red for optical measurement of generated force in hvCTS. […] The integrated flexible PDMS posts were used as force sensors, with the post deflection captured in real-time with a high-speed camera (100 frames/s) and LabView software (National Instruments, Austin, Tex., USA), applying a beam-bending equation from elasticity theory to calculate twitch force, as described previously^[2] and incorporated herein by reference. These measurements were obtained with the hvCTS maintained in the original molds where they were created with the hvCTS bathed in culture medium at 37° C. For each drug, force generated in response to 9 doses were measured with the drugs added to the hvCTS at half log increments in a cumulative manner. For each dose, the force generated at 0 Hz, 0.5 Hz, 1 Hz, 1.5 Hz and 2 Hz electrical pacing with field electrodes were measured.
Data analysis. Data were calculated and analyzed by a customized MatLab program. Force frequency curves for each drug were generated by plotting the generated force at 0.5 Hz, 1 Hz, 1.5 Hz and 2 Hz at different concentrations. All forces were normalized to the generated force at 0.5 Hz at the drug-free baseline condition (100%).
[…] The force generated under drug-free baseline condition was defined as 100%. The force generated at each drug concentration was then normalized to the generated force under the cognate drug-free baseline condition. The EC50 of each tested drug was estimated by fitting to a four-parameter dose-response equation given as: Y=Bottom+(Top-Bottom)/(1+10^((Log EC^50^−X)*HillSlope)), using commercial software (GraphPad Software Inc.). X is the logarithm of drug concentrations; […]; Top and Bottom are the Y values of the top and bottom plateaus of the curve itself; Baseline is the Y value that defines 0%—maximal inhibition by a standard drug. Hill Slope quantifies the steepness of the dose-response curve (the higher the Hill Slope, the steeper the curve).

[4] = tested on: EHT from hiPSC-CMs; details: drug screening with EHT from hiPSC-CMs; ref [3]; cited from earlier work
[5] = tested on: sheep cardiac Purkinje fibers; details: ref [19]; cited from earlier work
[6] = tested on: human right atrial trabeculae; details: ref [21]; cited from earlier work
[7] = tested on: hECT; details: hECT in muscle bath; ref [28]; cited from earlier work

For CC(C)NCC(O)c1ccc(O)c(O)c1 (stereo not shown) [Isoproterenol], the relevant concentration [1] is listed as 0.8 μM [18], non-failing human myocardium, the Emax at 10 µM ([2]; Homo sapiens, 10 μM isoproterenol, hvCOC, read-out: maximal effect, pressure) is listed as 132% and the “effect on hvCOC function” value ([2]; stroke volume/stroke work, cardiac output, developed pressure) is listed as “concentration-dependent increase in stroke volume, cardiac output, and developed pressure; also recorded: increase in stroke work, cardiac output and pressure volume loop”. The EC50 ([3]; 0.5 Hz pacing, Example 2 / FIG. 2C, read-out: EC50, developed contractile force) was 39 nM, the EC50 ([3]; 1 Hz pacing, Example 2, read-out: EC50, developed contractile force) was 59 nM and the EC50 ([3]; 1 Hz pacing, unblinded screening, Example 3, read-out: EC50, developed contractile force) was 150 nM. The EC50 ([3]; 1.5 Hz pacing, Example 2, read-out: EC50, developed contractile force) was 54 nM, the EC50 ([3]; 2 Hz pacing, Example 2 / FIG. 2C, read-out: EC50, developed contractile force) was 31 nM and the EC50 ([3]; Unblinded, 1 Hz pacing, read-out: -log EC50 in hvCTS (converted)) was 148 nM. For the same compound, the EC50 ([3]; Unblinded, 1 Hz pacing, read-out: EC50 in hvCTS (in brackets)) was 150 nM, the EC50 ([3]; across pacing frequencies 0.5-2 Hz, FIG. 2C, read-out: EC50 with increasing pacing frequency) was 31 to 59 nM and the Emax at 10 µM ([3]; 10 μM isoproterenol, hvCTS, read-out: maximal effect) was 113%. For the same compound, the relevant concentration [4] was 5.4 nM [3], drug screening with EHT from hiPSC-CMs.
In the case of CCN(CC)CC(=O)Nc1c(C)cccc1C [Lidocaine], the IC50 ([3]; 1 Hz pacing, blinded screening, Example 4, read-out: IC50, developed contractile force) is reported as 440 nM, the EC50 ([3]; Blinded, 1 Hz pacing, read-out: -log EC50 in hvCTS (converted)) is reported as 437000 nM and the EC50 ([3]; Blinded, 1 Hz pacing, read-out: EC50 in hvCTS (in brackets)) is reported as 439000 nM. The “concentration with negative inotropic effect” value [5] was 20 μM, [19] negative inotropic effect in sheep.
In the case of COc1ccc(CCN(C)CCCC(C#N)(c2ccc(OC)c(OC)c2)C(C)C)cc1OC (stereo not shown) [Verapamil], the IC50 [6] is listed as 123 nM and the relevant concentration [7] is listed as 0.61 μM [28], hECT in muscle bath.
